Source: patent publication US9546176B2, “Small molecule bicyclic and tricyclic CFTR correctors” (DISCOVERYBIOMED, INC., priority 2012, dated 2017)

Biological target: T1, delF508-CFTR (Homo sapiens, UniProt P13569, DEL508-508)
T1 construct: endogenous in cells; host or cells: CFBE41o- human CF bronchial epithelial cells (delF508 homozygous)
Assay: SPQ halide-sensitive fluorescence dye assay for rescue of halide efflux (8-point concentration-response)
Type: cell-based
Settings: for ΔSPQ (difference between maximum and minimum SPQ values) / EC50: CFBE41o- cells, 48 h; for EC50: read-out: SPQ EC50; for potency and efficacy compared with VX-809 in SPQ assay: versus VX-809
Description: The method of profiling can include detecting the rescue of halide efflux from a cell. The step of detecting a rescue of halide efflux from the cell can be monitored using the halide quenched dye 6-methoxy-N-(3-sulfopropyl)-quinolinium (SPQ, Molecular Probes Inc., Eugene, Oreg.). In this method, cells are treated with a compound as described herein for a period of time (e.g., 48 hours). The rescue or correction of halide efflux is then detected using the SPQ assay with the halide dye. […] Optionally, the halide efflux is chloride efflux. The method of screening can further comprise performing the method with multiple concentrations of the compound.
The compounds were initially subjected to the SPQ halide-sensitive fluorescence dye profiling assay for rescue or correction of membrane chloride ion permeability or transport with an 8-point concentration-response curve. The EC50 values for the compounds described herein were determined using SPQ (Table 1). The ΔSPQ value was calculated by determining the difference between the maximum and minimum SPQ values for the compounds.
To perform the SPQ high throughput screening assay, CFBE41o-cells were seeded into 96-well microtiter plates and were loaded with the fluorescent halide-sensitive dye, SPQ, in serum-containing culture medium. Certain wells were loaded with known positive control corrector molecules, including the industry standard Vertex 809 (VX-809; Vertex Pharmaceuticals, Cambridge, Mass.) at 3 μM, which is the maximally effective profiling dose for VX-809. The test compounds were loaded into wells and were tested in triplicate wells at a 10 μM dose and incubated over 48 hours at room temperature. During the 48 hour period, SPQ was absorbed. Plates were washed in a sodium chloride (NaCl) based Ringer and read once over two minutes to set the baseline SPQ fluorescence activity. Then, NaCl was replaced by sodium nitrate (NaNO3) based Ringer. The plates were read twice over four minutes. The primary high throughput screen (HTS) data were analyzed to detect any function of rescued delF508-CFTR under basal conditions. The plate was read up to two times to complete the SPQ HTS assay.

T1 sequence (P13569 with tags, fused parts or gaps DEL508-508): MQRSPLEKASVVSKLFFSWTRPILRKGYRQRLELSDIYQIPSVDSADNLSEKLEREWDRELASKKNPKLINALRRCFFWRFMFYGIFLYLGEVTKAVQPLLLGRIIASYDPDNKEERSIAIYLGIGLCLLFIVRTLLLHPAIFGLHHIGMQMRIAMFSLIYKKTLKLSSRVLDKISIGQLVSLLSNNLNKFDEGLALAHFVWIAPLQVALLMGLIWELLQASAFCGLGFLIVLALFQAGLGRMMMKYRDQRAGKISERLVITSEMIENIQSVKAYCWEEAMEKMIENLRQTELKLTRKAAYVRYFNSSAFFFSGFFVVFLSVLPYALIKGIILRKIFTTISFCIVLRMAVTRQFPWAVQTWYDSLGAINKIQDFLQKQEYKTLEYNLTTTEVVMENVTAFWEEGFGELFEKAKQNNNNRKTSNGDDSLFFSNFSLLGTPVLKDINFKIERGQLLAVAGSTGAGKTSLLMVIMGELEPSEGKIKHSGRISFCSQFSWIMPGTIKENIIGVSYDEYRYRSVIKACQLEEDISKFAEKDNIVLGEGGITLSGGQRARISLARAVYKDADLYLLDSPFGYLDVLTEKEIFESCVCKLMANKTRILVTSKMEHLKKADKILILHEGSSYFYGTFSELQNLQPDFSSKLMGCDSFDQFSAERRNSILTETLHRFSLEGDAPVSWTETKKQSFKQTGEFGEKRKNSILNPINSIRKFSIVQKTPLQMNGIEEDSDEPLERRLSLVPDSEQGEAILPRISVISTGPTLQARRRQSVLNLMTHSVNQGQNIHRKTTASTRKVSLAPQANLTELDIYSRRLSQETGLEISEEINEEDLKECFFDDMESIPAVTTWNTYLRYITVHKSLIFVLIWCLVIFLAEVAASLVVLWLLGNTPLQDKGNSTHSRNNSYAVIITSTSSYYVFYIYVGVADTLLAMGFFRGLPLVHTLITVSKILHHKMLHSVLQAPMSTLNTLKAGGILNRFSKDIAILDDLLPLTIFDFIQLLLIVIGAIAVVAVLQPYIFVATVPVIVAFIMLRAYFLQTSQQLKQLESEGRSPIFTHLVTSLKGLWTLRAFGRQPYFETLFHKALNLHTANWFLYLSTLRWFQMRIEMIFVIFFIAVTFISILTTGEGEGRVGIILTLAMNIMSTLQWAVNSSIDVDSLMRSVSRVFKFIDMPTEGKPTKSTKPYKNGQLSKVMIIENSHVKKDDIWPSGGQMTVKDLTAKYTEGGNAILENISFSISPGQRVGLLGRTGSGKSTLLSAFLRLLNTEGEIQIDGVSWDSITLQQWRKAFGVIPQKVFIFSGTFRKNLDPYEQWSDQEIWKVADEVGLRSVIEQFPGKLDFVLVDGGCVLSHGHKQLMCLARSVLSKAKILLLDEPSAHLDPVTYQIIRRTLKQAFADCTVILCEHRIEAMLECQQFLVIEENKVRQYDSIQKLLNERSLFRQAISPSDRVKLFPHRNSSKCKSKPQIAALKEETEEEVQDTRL

Row | Structure (SMILES) | ΔSPQ (difference between maximum and minimum SPQ values) [RFU] | EC50 [µM] | potency and efficacy compared with VX-809 in SPQ assay
1 | C=CCn1c(=O)c2c(nc3n(-c4cccc(C)c4)c(C)c(C)n23)n(C)c1=O [Compound I-15] | 5708 | 6.1 | 
2 | C=CCn1c(C)cn2c3c(=O)n(Cc4ccccc4C)c(=O)n(C)c3nc12 [Compound I-16] | 6996 | 17.7 | 
3 | CCCn1c(=O)c2c(nc3n(-c4ccccc4OC)c(C)c(C)n23)n(C)c1=O [Compound I-17] | 3733 | 8.8 | 
4 | CCCn1c(=O)c2c(nc3n(-c4ccccc4O)c(C)c(C)n23)n(C)c1=O [Compound I-18] | 5235 | 7.1 | 
5 | C/C=C/Cn1c(=O)c2c(nc3n(-c4ccccc4O)c(C)c(C)n23)n(C)c1=O [Compound I-19] | 2058 | 3.2 | 
6 | C=CCn1c(=O)c2c(nc3n(-c4ccccc4C)c(C)c(C)n23)n(C)c1=O [Compound I-20] | 9362 | 3.8 | 
7 | C=CCn1c(C)cn2c3c(=O)n(Cc4cccc(C)c4)c(=O)n(C)c3nc12 [Compound I-21] | 7073 | 9.4 | 
8 | C=CCn1c(C)cn2c3c(=O)n(Cc4ccc(F)cc4)c(=O)n(C)c3nc12 [Compound I-22] | 8993 | 6.3 | 
9 | CCn1c(=O)c2c(nc3n(-c4cccc(Cl)c4C)c(C)cn23)n(C)c1=O [Compound I-23] | 13290 | 10.5 | 
10 | CCCn1c(C)cn2c3c(=O)n(Cc4cccc(C)c4)c(=O)n(C)c3nc12 [Compound I-24] | 5227 | 3.7 | 
11 | CCn1c(=O)c2c(nc3n(-c4ccccc4OC)c(C)c(C)n23)n(C)c1=O [Compound I-25] | 6949 | 10.4 | 
12 | C=CCn1c(=O)c2c(nc3n(-c4ccc(OC)cc4)c(C)c(C)n23)n(C)c1=O [Compound I-26] | 4090 | 3.1 | 
13 | C/C=C/Cn1c(=O)c2c(nc3n(CCCC)c(C)cn23)n(C)c1=O [Compound I-27] | 8829 | 18.4 | 
14 | CCCCn1c(=O)c2c(nc3n(CCO)c(C)cn23)n(C)c1=O [Compound I-28] | 1344 | 3 | 
15 | CCn1c(=O)c2c(nc3n(-c4cccc(OC)c4)c(C)c(C)n23)n(C)c1=O [Compound I-29] | 10298 | 9.6 | 
16 | CCn1c(=O)c2c(nc3n(C(C)c4ccccc4)c(C)cn23)n(C)c1=O (stereo not shown) [Compound I-30] | 18574 | 22.6 | 
17 | CCCn1c(=O)c2c(nc3n(CC(C)C)c(C)c(C)n23)n(C)c1=O [Compound I-31] | 300 | 12.7 | 
18 | CCCn1c(=O)c2c(nc3n(Cc4ccco4)c(C)c(C)n23)n(C)c1=O [Compound I-32] | 2989 | 3.3 | 
19 | CCc1ccc(-n2c(C)c(C)n3c4c(=O)n(CCCO)c(=O)n(C)c4nc23)cc1 [Compound I-33] | 16061 | 18.9 | 
20 | CCCn1c(=O)c2c(nc3n(Cc4ccccc4)c(C)c(C)n23)n(C)c1=O [Compound I-34] | 9486 | 4.6 | superior potency and efficacy to VX-809
21 | CCn1c(=O)c2c(nc3n(-c4cccc(OC)c4)c(C)cn23)n(C)c1=O [Compound I-35] | 13989 | 18.1 | 
22 | CCn1c(=O)c2c(nc3n(Cc4ccco4)c(C)c(C)n23)n(C)c1=O [Compound I-36] | 3375 | 7.1 | 

Row | Structure (SMILES) | ΔSPQ (difference between maximum and minimum SPQ values) [RFU] | EC50 [µM] | potency and efficacy compared with VX-809 in SPQ assay
23 | CCCn1c(=O)c2c(nc3n(C(C)CC)c(C)cn23)n(C)c1=O (stereo not shown) [Compound I-37] | 8170 | 10.7 | 
24 | C=CCn1c(=O)c2c(nc3n(CC(C)C)c(C)c(C)n23)n(C)c1=O [Compound I-38] | 8563 | 7.8 | 
25 | Cc1cc(C)cc(-n2c(C)cn3c4c(=O)n(CCCO)c(=O)n(C)c4nc23)c1 [Compound I-39] | 11432 | 13 | 
26 | CCOCCn1c(=O)c2c(nc3n2CCN3c2cc(C)ccc2C)n(C)c1=O [Compound I-40] | 12347 | 9.5 | 
27 | Cc1c(C)n2c3c(=O)n(CCCO)c(=O)n(C)c3nc2n1-c1ccccc1 [Compound I-41] | 11080 | 20.3 | 
28 | CCc1ccc(-n2c(C)cn3c4c(=O)n(CCCO)c(=O)n(C)c4nc23)cc1 [Compound I-42] | 14593 | 19.7 | 
29 | C=CCn1c(=O)c2c(nc3n(C(C)c4ccccc4)c(C)c(C)n23)n(C)c1=O (stereo not shown) [Compound I-43] | 9439 | 3.4 | 
30 | Cc1c(C)n2c3c(=O)n(CC(C)C)c(=O)n(C)c3nc2n1Cc1ccco1 [Compound I-44] | 9148 | 10 | 
31 | CCOCCn1c(=O)c2c(nc3n(-c4ccc(OC)cc4)c(C)c(C)n23)n(C)c1=O [Compound I-45] | 5321 | 23.3 | 
32 | CCCCn1c(C)cn2c3c(=O)n(CC(=O)OC)c(=O)n(C)c3nc12 [Compound I-46] | 5027 | 10.6 | 
33 | Cc1c(C)n2c3c(=O)n(CCCO)c(=O)n(C)c3nc2n1Cc1ccco1 [Compound I-47] | 7294 | 10.6 | 
34 | Cc1c(C)n2c3c(=O)n(CCCO)c(=O)n(C)c3nc2n1CCc1ccccc1 [Compound I-48] | 5300 | 3.3 | 
35 | CCC(C)n1c(C)c(C)n2c3c(=O)n(CC(=O)OC)c(=O)n(C)c3nc12 (stereo not shown) [Compound I-49] | 9652 | 9 | 
36 | Cc1c(C)n2c3c(=O)n(C/C=C/c4ccccc4)c(=O)n(C)c3nc2n1CCCO [Compound I-50] | 3639 | > 30 | 
37 | CCCCn1c(=O)c2c(nc3n(CCN4CCOCC4)c(C)c(C)n23)n(C)c1=O [Compound I-51] | 9639 | > 30 | 
38 | C/C=C/Cn1c(=O)c2c(nc3n(Cc4ccco4)c(C)cn23)n(C)c1=O [Compound I-52] | 6282 | > 30 | 
39 | C/C=C/Cn1c(=O)c2c(nc3n2CCN3Cc2ccco2)n(C)c1=O [Compound I-53] | 6050 | 11 | 
40 | CCn1c(=O)c2c(nc3n2CCN3Cc2ccco2)n(C)c1=O [Compound I-54] | 3397 | > 30 | 
41 | CC(C)CCn1c(=O)c2c(nc3n2CCN3Cc2ccco2)n(C)c1=O [Compound I-55] | 4315 | > 30 | 
42 | C/C=C/Cn1c(=O)c2c(nc3n(C(C)CC)c(C)c(C)n23)n(C)c1=O (stereo not shown) [Compound I-56] | 2183 | 0.2 | superior potency and efficacy to VX-809
43 | CCn1c(=O)c2c(nc3n(-c4ccccc4C)c(C)c(C)n23)n(C)c1=O [Compound I-57] | 4000 | 7.9 | 
